Measurements from patent US20180289008A1, “METHODS FOR WILDFIRE CONTROL, INVASIVE PLANT CONTROL, AND RESIDUAL CONTROL OF INVASIVE PLANTS” (priority 2017, published 2018).

Key:
[1] = tested on: invasive winter annual grass (downy brome, feral rye, Japanese brome); assay: Invasive winter annual grass field efficacy studies, biomass as percent of non-treated (Sites 1 and 2 combined); assay type: in vivo, Bromus tectorum, Secale cereale, Bromus japonicus; details: 1 YAT, across all five application timings, 73 and 102 g·ai·ha^−1; POST treatments with glyphosate
Method: In year 1, field experiments were conducted to compare the effectiveness of indaziflam and imazapic for long-term invasive winter annual grass control, and to evaluate the response of the native plant communities. The experiments were established at two sites on the Colorado Front Range dominated by invasive winter annual grasses. Site 1 (lat 40° 15′2″N, long 105° 12′56″W) was infested with equal amounts of downy brome and Japanese brome. Site 2 (lat 40° 43′23″N, long 104° 55′58″W) was infested with feral rye. These two sites were approximately 58 km apart. Site 1 was located on Rabbit Mountain Open Space (Boulder County). Site 2 was located on a Colorado Parks and Wildlife Area (Larimer County). Before herbicide application in July, visual estimates were made across the entire study area of percentage of living canopy cover for all species present at both sites.
Site 1 was characterized by ˜80-100% downy brome and Japanese brome canopy cover with a dense fine-fuel layer, e.g., thatch, (2 to 5 cm), and a scattered stand of co-occurring species (˜0-10% canopy cover, Table 4). […]
Biomass harvests and species richness evaluations were conducted in August (year 2 and year 3) to evaluate invasive winter annual grass control and response of co-occurring species. […] Additionally, at Site 1, species richness was calculated for each treatment as a simple estimate of biological diversity. […]

[2] = average; cited from earlier work

## Cc1ccc2c(c1)[C@H](Nc1nc(N)nc(C(C)F)n1)[C@@H](C)C2 (mixture of isomers) [Indaziflam, N2-[(1R,2S)-2,3-dihydro-2,6-dimethyl-1H-inden-1-yl]-6-[(1RS)-1-fluoroethyl]-1,3,5-triazine-2,4-diamine]
[1]
  invasive winter annual grass control: > 99%
[2]
  water solubility: 3.6 µg/mL
